# Source: US20250268873A1, “COMBINATION OF DUAL ATM AND DNA-PK INHIBITORS AND IMMUNOTHERAPEUTIC AGENTS FOR USE IN CANCER THERAPY” (XRAD THERAPEUTICS, INC., priority 2021, published 2025)
# Target: hERG channel (Homo sapiens (Human), UniProt Q12809)
# Test: In-Vitro hERG Inhibition Assay (manual patch clamp)
# Type: cell-based
# Conditions: hERG-T-REx HEK 293 cells
# Method: The hERG-T-REx™ HEK 293 cells (Invitrogen, K1236) were generated by transfecting the hERG coding sequence in the Tet-regulated expression vector pT-Rex-DEST30 into cells expressing the Tet-repressor (T-Rex™ HEK293), thereby producing cells that can be induced to express high level of hERG channels. The cells were cultured in a medium containing of 85% DMEM, 10% dialyzed FBS, 0.1 mM NEAA, 25 mM HEPES, 100 U/mL Penicillin-Streptomycin, 5 μg/mL Blasticidin, and 400 μg/mL Geneticin. The cells were split using TrypLE™ Express (Gibco, 12604) about three times a week and maintained between ˜40% to ˜80% confluence. Before the assay, the cells were induced with doxycycline (Sigma, D9891) at 1 μg/mL for 48 hours. On the experiment day, the induced cells were resuspended and plated onto the coverslips at 5×10^5 cells/per 6 cm cell culture dish prior to use. The hERG channel-mediated current was acquired by manual patch clamp recording systems equipped with amplifiers (HEKA, EPC10 and Molecular Devices, multiclamp 700B) and the inverted phase contrast microscope (Olympus, IX51/71/73). Glass pipettes were prepared by micropipette puller (Sutter, P97 and Narishige, PC-10) and qualified by the pipette resistance in the range of 2-4 MOhms. […] The whole-cell configuration was maintained with access resistance continuously monitored (<15 MOhms). […]
# Chain of hERG channel (Q12809 whole entry): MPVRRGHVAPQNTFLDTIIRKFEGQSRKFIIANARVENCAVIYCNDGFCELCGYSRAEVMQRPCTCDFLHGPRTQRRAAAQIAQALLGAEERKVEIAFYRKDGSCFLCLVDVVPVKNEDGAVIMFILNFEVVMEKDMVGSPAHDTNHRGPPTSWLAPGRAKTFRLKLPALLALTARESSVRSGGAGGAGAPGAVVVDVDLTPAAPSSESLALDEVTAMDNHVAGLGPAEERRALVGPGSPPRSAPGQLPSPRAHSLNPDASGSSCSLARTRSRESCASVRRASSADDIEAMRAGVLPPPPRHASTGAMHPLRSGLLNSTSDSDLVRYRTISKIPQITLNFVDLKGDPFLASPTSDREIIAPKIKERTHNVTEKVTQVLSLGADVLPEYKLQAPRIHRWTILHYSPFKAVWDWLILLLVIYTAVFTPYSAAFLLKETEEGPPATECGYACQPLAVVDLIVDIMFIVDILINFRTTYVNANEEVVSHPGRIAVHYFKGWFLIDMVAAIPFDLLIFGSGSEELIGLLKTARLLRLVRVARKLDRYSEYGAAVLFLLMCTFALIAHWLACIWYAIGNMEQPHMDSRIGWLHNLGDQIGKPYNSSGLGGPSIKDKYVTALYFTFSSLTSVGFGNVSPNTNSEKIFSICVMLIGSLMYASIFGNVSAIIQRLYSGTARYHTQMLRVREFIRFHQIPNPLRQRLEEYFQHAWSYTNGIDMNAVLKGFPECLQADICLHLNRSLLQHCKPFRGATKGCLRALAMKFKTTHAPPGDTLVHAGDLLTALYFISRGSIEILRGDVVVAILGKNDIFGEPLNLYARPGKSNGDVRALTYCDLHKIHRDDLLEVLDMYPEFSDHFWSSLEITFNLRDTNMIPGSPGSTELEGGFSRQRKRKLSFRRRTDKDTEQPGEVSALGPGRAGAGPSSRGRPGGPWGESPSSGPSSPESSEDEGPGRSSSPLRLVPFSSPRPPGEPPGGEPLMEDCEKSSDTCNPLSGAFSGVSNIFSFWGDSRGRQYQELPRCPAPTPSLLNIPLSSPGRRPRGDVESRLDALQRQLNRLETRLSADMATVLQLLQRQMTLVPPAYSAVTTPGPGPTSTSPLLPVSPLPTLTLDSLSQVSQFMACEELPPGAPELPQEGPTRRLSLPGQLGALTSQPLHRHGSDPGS
smiles,measurement,value
"CC(C)NCCOc1ncc(-c2cc3c4c(cnc3cc2F)N(C)C(=O)C42CCC2)cc1NS(C)(=O)=O [Compound 569, N-(5-(7′-Fluoro-3′-methyl-2′-oxo-2′,3′-dihydrospiro[cyclobutane-1,1′-pyrrolo[2,3-c]quinolin]-8′-yl)-2-(2-(isopropylamino)ethoxy)pyridin-3-yl)methanesulfonamide]",IC50,> 30 µM
